Reference: ChEMBL document CHEMBL5532657, “Serendipitous discovery of Class I HDAC inhibitors from rational design of molecular glue degraders targeting HDAC” (Eur J Med Chem, 2024)
The source made the active and inactive calls. The calls are words filed in the database; no cut-off is given here.

How the values were obtained:
RPMI-8226 = assay: Antiproliferative activity against human RPMI-8226 cells assessed as cell growth inhibition incubated for 48 hrs by CCK-8 assay; assay type: functional, cell-based; details: RPMI-8226, 48 h
HCT-116 = assay: Antiproliferative activity against human HCT-116 cells assessed as cell growth inhibition at 5 uM incubated for 48 hrs by CCK-8 assay; assay type: functional, cell-based
Histone deacetylase 2 = Histone deacetylase 2 (Homo sapiens, UniProt Q92769); assay: Inhibition of HDAC2 in human HeLa cells nuclear extract using BocLys(acetyl)-AMC as substrate incubated for 1 hr by fluorescence plate reader analysis; assay type: subcellular, Nucleus
Histone deacetylase 4 = Histone deacetylase 4 (Homo sapiens, UniProt P56524); assay: Inhibition of HDAC4 in human HeLa cells nuclear extract using BocLys(acetyl)-AMC as substrate incubated for 1 hr by fluorescence plate reader analysis; assay type: subcellular, Nucleus
[1] = target: T1, Protein deacetylase HDAC6 (Homo sapiens) (UniProt Q9UBN7); assay: Induction of HDAC6 degradation in human RS4-11 cells at 0.5 to 10 uM incubated for 12 hrs by Western blotting analysis; assay type: cell-based; details: dose 0.5-10 µM
T1 sequence (whole entry): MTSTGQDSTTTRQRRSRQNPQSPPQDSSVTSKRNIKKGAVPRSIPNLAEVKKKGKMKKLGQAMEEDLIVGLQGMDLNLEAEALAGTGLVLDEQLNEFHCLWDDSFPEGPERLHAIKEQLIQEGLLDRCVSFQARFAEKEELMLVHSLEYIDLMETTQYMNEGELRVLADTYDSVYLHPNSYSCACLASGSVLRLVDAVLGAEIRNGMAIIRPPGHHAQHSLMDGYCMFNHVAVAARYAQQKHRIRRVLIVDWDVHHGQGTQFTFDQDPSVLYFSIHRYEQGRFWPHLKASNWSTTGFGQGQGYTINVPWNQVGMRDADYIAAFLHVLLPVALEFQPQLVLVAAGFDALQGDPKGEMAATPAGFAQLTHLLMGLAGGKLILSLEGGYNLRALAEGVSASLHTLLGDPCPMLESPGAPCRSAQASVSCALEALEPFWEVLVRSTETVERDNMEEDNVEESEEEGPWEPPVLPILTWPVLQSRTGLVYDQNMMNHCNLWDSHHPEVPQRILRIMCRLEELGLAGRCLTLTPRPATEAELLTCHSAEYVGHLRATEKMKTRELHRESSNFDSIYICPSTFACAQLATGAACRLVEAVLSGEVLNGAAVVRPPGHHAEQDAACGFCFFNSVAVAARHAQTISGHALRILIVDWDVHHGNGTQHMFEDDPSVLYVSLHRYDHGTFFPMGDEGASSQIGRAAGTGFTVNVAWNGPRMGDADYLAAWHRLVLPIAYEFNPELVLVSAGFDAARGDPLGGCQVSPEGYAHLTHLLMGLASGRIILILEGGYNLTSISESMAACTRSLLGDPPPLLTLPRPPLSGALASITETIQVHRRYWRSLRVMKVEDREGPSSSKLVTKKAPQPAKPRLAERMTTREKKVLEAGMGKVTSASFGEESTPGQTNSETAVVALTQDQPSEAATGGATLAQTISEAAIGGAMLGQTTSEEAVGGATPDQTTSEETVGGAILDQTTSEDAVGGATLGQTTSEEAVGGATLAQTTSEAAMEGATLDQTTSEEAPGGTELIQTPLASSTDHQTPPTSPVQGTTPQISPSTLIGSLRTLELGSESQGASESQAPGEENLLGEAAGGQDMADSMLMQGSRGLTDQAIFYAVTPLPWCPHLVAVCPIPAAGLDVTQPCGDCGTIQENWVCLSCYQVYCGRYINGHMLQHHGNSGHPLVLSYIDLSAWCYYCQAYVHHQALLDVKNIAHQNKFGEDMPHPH

Histone deacetylase 9 = Histone deacetylase 9 (Homo sapiens, UniProt Q9UKV0); assay: Inhibition of HDAC9 in human HeLa cells nuclear extract using BocLys(acetyl)-AMC as substrate incubated for 1 hr by fluorescence plate reader analysis; assay type: subcellular, Nucleus
RS4-11 = assay: Antiproliferative activity against human RS4-11 cells assessed as cell growth inhibition incubated for 48 hrs by CCK-8 assay; assay type: functional, cell-based; details: RS4-11, 48 h
U-266 = assay: Antiproliferative activity against human U-266 cells assessed as cell growth inhibition incubated for 48 hrs by CCK-8 assay; assay type: functional, cell-based; details: U-266, 48 h
Histone deacetylase 7 = target: T2, Histone deacetylase 7 (Homo sapiens, UniProt Q8WUI4); assay: Inhibition of HDAC7 in human HeLa cells nuclear extract using BocLys(acetyl)-AMC as substrate incubated for 1 hr by fluorescence plate reader analysis; assay type: subcellular, Nucleus
T2 sequence (Q8WUI4 whole entry): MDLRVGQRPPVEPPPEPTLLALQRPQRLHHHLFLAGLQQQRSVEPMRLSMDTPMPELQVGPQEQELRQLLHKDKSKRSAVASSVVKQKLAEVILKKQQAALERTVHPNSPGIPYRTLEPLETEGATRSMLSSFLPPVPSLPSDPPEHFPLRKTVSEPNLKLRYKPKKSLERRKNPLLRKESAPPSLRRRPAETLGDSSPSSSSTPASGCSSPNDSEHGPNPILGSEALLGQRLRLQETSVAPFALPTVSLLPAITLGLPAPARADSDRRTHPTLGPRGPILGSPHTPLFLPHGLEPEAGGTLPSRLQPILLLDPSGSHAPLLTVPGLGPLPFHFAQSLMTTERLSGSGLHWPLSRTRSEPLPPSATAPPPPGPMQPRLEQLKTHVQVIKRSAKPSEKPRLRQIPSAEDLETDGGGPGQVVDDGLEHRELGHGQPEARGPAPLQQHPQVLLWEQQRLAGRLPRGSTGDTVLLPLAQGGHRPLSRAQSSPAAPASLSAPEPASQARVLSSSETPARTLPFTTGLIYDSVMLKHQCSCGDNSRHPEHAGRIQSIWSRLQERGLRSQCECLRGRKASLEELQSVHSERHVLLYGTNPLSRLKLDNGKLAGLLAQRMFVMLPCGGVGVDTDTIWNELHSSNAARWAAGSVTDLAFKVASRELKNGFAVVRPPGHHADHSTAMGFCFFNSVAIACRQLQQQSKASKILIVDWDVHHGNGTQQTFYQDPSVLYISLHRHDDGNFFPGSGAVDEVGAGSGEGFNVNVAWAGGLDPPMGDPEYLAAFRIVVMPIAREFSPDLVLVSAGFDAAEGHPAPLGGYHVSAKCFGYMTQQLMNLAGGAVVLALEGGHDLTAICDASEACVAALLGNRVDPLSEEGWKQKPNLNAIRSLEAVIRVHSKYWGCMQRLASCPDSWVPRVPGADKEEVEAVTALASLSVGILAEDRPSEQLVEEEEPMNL

K562 = assay: Antiproliferative activity against human K562 cells assessed as cell growth inhibition incubated for 48 hrs by CCK-8 assay; assay type: functional, cell-based; details: K562, 48 h
Histone deacetylase 1 = Histone deacetylase 1 (Homo sapiens, UniProt Q13547); assay: Induction of HDAC1 degradation in human RS4-11 cells at 0.5 to 10 uM incubated for 12 hrs by Western blotting analysis; assay type: cell-based; details: dose 0.5-10 µM
A549 = assay: Antiproliferative activity against human A549 cells assessed as cell growth inhibition at 5 uM incubated for 48 hrs by CCK-8 assay; assay type: functional, cell-based
HeLa = assay: Antiproliferative activity against human HeLa cells assessed as cell growth inhibition at 5 uM incubated for 48 hrs by CCK-8 assay; assay type: functional, cell-based
Histone deacetylase 11 = target: T3, Histone deacetylase 11 (Homo sapiens, UniProt Q96DB2); assay: Inhibition of HDAC11 in human HeLa cells nuclear extract using BocLys(acetyl)-AMC as substrate incubated for 1 hr by fluorescence plate reader analysis; assay type: subcellular, Nucleus
T3 sequence (Q96DB2 whole entry): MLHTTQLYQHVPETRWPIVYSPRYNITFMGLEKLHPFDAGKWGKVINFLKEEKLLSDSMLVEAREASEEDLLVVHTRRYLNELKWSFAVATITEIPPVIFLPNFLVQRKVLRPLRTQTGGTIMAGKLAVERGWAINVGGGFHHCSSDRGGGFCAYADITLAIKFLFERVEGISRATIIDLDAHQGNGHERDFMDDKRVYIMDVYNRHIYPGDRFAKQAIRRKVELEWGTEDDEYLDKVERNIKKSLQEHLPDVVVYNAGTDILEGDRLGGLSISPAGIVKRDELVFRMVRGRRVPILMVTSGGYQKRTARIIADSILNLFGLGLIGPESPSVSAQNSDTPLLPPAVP

[2] = target: Histone deacetylase (Homo sapiens) (UniProt Q13547+O15379+Q9UBN7+Q92769+Q9UQL6+Q8WUI4+Q9BY41+Q96DB2+P56524+Q9UKV0+Q969S8); assay: Inhibition of HDAC in human RS4-11 cells assessed as upregulation of histone H3 acetylation by Western blot assay; assay type: cell-based
[3] = target: T1, Protein deacetylase HDAC6 (Homo sapiens); assay: Inhibition of HDAC6 in human RS4-11 cells assessed as effect on alpha-tubulin acetylation by Western blot assay; assay type: cell-based

Sequence of Histone deacetylase 1 (Q13547 whole entry): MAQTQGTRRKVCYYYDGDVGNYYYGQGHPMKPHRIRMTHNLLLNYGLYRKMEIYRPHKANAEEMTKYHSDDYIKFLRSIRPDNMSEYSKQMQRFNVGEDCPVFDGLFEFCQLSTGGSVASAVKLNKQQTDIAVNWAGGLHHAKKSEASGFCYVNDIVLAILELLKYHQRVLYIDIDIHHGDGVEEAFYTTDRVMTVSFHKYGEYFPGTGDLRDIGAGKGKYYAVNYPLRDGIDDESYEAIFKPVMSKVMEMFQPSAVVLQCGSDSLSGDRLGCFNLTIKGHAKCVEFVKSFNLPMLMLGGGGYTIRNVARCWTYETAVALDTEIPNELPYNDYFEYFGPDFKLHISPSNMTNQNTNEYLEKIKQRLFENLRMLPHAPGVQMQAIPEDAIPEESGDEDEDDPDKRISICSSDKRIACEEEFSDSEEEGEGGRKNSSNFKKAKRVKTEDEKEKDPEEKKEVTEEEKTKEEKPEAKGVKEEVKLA
Sequence of Histone deacetylase 2 (Q92769 whole entry): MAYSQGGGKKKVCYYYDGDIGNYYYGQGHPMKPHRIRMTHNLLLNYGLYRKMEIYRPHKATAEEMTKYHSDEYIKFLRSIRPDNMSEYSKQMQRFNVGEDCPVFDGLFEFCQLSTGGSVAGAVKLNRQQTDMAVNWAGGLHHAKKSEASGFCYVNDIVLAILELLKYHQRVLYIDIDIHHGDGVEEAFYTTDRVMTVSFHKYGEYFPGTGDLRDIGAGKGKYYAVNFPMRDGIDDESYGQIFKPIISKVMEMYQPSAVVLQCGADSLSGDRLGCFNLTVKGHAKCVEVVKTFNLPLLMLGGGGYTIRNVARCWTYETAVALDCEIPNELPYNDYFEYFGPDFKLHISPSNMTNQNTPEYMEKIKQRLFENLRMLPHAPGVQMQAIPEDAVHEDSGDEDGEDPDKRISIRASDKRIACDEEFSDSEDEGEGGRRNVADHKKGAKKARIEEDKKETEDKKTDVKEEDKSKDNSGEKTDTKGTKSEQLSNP
Sequence of Histone deacetylase 4 (P56524 whole entry): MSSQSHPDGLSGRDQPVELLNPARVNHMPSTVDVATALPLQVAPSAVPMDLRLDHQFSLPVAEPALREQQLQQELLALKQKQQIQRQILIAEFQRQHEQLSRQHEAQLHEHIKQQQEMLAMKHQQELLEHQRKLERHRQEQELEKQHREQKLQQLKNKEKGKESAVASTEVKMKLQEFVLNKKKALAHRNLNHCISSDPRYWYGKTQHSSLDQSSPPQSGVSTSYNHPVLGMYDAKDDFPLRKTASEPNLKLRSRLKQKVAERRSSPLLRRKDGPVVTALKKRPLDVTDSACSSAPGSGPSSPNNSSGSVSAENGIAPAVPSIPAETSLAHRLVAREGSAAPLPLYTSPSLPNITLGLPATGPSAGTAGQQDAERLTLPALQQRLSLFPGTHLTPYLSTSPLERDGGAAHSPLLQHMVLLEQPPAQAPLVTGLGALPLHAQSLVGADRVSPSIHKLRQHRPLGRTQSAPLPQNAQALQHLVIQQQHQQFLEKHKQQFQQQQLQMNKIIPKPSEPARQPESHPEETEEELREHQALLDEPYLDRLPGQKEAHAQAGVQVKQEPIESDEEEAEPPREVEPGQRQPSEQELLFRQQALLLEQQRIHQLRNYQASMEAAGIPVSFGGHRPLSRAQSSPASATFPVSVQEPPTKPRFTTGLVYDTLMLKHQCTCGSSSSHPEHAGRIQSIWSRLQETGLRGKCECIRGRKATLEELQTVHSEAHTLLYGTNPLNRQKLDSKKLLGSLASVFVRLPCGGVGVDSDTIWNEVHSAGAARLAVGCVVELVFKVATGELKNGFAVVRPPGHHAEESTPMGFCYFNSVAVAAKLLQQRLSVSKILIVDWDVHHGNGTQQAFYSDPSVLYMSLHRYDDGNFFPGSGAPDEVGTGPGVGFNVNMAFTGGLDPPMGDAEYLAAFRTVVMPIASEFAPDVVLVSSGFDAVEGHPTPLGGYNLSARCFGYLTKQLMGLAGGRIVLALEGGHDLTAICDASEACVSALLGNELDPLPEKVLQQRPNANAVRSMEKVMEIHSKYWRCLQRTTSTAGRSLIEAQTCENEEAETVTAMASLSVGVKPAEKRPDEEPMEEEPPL
Sequence of Histone deacetylase 9 (Q9UKV0 whole entry): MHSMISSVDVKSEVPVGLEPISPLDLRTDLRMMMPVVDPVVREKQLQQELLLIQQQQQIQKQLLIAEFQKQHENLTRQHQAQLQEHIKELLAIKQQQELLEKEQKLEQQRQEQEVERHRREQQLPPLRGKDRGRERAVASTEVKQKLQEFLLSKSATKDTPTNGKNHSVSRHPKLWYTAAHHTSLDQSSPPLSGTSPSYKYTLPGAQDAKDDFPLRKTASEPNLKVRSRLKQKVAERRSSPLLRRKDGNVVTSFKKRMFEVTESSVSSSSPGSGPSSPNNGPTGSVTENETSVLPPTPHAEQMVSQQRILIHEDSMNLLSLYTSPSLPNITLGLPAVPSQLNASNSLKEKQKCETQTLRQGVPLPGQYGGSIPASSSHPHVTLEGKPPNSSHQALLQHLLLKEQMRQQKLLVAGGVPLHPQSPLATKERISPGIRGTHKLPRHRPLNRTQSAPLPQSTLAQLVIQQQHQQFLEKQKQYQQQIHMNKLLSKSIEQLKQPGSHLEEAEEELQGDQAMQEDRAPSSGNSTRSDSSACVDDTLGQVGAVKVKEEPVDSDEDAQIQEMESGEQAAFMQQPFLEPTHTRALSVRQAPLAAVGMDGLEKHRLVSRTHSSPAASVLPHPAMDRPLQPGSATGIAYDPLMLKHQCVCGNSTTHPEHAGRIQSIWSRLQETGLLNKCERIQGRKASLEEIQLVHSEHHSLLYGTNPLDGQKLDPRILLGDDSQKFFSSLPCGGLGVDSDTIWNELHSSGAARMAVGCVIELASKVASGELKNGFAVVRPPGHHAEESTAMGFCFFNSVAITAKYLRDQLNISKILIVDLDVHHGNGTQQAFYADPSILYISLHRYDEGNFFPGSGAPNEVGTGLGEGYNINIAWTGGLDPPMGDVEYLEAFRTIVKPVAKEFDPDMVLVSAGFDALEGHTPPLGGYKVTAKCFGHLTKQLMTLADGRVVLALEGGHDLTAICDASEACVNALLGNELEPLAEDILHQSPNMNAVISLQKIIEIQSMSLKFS

SMILES | IC50 (RPMI-8226) | IC50 (Histone deacetylase 2) | IC50 (Histone deacetylase 4) | Activity [1] | IC50 (Histone deacetylase 9) | IC50 (RS4-11) | IC50 (Histone deacetylase 7) | IC50 (K562) | Activity (Histone deacetylase 1) | IC50 (Histone deacetylase 11) | inhibition [2] | Activity [3] | Activity (HCT-116) | IC50 (U-266) | Activity (A549) | Activity (HeLa)
Nc1ccc(F)cc1NC(=O)c1ccc(CNC(=O)/C=C/c2cccnc2)cc1 | 4190 nM | 478 nM | > 2000 nM | inactive | > 2000 nM | 810 nM | > 2000 nM | 21300 nM | inactive | > 2000 nM |  |  | inactive | 4810 nM | inactive | inactive
O=C(CCCCCCNc1cccc2c1C(=O)N(C1CCC(=O)NC1=O)C2=O)NO (stereo unspecified) |  |  |  | inactive |  |  |  |  | inactive |  | Active | inactive | inactive |  | inactive | inactive
Nc1ccccc1NC(=O)c1cn(CCOCCNc2cccc3c2C(=O)N(C2CCC(=O)NC2=O)C3=O)nn1 (stereo unspecified) |  |  |  | inactive |  |  |  |  | inactive |  |  |  | inactive |  | inactive | inactive
O=C1CCC(N2C(=O)c3cccc(NCCOCCOCCn4cc(C(=O)NO)nn4)c3C2=O)C(=O)N1 (stereo unspecified) |  |  |  | inactive |  |  |  |  | inactive |  |  |  | inactive |  | inactive | inactive
O=C1CCC(N2C(=O)c3cccc(NCCOCCn4cc(C(=O)NO)nn4)c3C2=O)C(=O)N1 (stereo unspecified) |  |  |  | inactive |  |  |  |  | inactive |  |  |  | inactive |  | inactive | inactive
O=C1CCC(N2C(=O)c3cccc(NCc4ccc(C(=O)NCCS)cc4)c3C2=O)C(=O)N1 (stereo unspecified) |  |  |  | inactive |  |  |  |  | inactive |  |  |  | inactive |  | inactive | inactive
O=C1CCC(N2C(=O)c3cccc(NCCOCCOCCOCCn4cc(C(=O)NO)nn4)c3C2=O)C(=O)N1 (stereo unspecified) |  |  |  | inactive |  |  |  |  | inactive |  |  |  | inactive |  | inactive | inactive
CCNNC(=O)c1ccc(CNc2cccc3c2C(=O)N(C2CCC(=O)NC2=O)C3=O)cc1 (stereo unspecified) |  |  |  | inactive |  |  |  |  | inactive |  |  |  | inactive |  | inactive | inactive

Further lines, with some results ahead:

IC50 (RPMI-8226) | IC50 (Histone deacetylase 2) | IC50 (Histone deacetylase 4) | Activity [1] | IC50 (Histone deacetylase 9) | IC50 (RS4-11) | IC50 (Histone deacetylase 7) | IC50 (K562) | Activity (Histone deacetylase 1) | IC50 (Histone deacetylase 11) | inhibition [2] | Activity [3] | SMILES | Activity (HCT-116) | IC50 (U-266) | Activity (A549) | Activity (HeLa)
 |  |  | inactive |  |  |  |  | inactive |  |  |  | Nc1cc(F)ccc1NC(=O)CCCCNc1cccc2c1C(=O)N(C1CCC(=O)NC1=O)C2=O (stereo unspecified) | inactive |  | inactive | inactive
 |  |  | inactive |  |  |  |  | inactive |  |  |  | Nc1cc(F)ccc1NC(=O)CCCCCCCNc1cccc2c1C(=O)N(C1CCC(=O)NC1=O)C2=O (stereo unspecified) | inactive |  | inactive | inactive
 |  |  | inactive |  |  |  |  | inactive |  |  |  | Nc1cc(F)ccc1NC(=O)CCCCCNc1cccc2c1C(=O)N(C1CCC(=O)NC1=O)C2=O (stereo unspecified) | inactive |  | inactive | inactive
